Entries after “also recorded” stand apart in the source; their conditions may differ.

Assay [1] deals with T1, glucocorticoid receptor (GR) (Rattus norvegicus, UniProt P06536).
T1 construct: expressed in transfected cells; host or cells: Cos7
T1 sequence (P06536 1-795): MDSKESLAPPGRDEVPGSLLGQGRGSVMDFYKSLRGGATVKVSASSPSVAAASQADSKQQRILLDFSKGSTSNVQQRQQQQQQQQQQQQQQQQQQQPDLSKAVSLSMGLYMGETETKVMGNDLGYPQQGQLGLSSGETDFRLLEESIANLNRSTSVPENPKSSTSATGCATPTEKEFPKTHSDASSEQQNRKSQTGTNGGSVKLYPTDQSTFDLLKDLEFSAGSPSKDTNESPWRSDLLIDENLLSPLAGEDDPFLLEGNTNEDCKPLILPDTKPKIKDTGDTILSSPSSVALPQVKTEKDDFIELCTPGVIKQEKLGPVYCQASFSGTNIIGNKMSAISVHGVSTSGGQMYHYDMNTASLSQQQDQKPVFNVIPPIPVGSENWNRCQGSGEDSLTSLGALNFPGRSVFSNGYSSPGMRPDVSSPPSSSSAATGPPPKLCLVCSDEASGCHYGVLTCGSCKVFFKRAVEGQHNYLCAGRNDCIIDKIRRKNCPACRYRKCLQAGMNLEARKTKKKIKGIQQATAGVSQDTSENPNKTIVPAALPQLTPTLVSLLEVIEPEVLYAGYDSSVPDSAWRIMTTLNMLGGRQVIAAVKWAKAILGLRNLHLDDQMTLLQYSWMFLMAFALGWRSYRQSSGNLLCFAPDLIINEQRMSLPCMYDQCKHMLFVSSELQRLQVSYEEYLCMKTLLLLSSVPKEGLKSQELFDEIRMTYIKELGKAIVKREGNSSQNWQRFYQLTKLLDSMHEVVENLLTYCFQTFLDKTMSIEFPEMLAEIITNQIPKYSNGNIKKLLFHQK
Format: cell-based.

Assay [2] deals with constitutive luciferase vector, pGL3 control. Format: cell-based.
In assay [3] the test system is tyrosine aminotransferase (TAT) in HTC cells. Format: cell-based, rat.
The test system of assay [4] is Raw264.7 cells. It counts as cell-based.
For assay [5], the system named is J774.1 cells. It counts as cell-based.
Assay [6] addresses T1, glucocorticoid receptor (GR). It counts as binding.
Assay [7] addresses T2, progesterone receptor B (PR-B) (Homo sapiens, UniProt P06401).
T2 sequence (P06401 1-933): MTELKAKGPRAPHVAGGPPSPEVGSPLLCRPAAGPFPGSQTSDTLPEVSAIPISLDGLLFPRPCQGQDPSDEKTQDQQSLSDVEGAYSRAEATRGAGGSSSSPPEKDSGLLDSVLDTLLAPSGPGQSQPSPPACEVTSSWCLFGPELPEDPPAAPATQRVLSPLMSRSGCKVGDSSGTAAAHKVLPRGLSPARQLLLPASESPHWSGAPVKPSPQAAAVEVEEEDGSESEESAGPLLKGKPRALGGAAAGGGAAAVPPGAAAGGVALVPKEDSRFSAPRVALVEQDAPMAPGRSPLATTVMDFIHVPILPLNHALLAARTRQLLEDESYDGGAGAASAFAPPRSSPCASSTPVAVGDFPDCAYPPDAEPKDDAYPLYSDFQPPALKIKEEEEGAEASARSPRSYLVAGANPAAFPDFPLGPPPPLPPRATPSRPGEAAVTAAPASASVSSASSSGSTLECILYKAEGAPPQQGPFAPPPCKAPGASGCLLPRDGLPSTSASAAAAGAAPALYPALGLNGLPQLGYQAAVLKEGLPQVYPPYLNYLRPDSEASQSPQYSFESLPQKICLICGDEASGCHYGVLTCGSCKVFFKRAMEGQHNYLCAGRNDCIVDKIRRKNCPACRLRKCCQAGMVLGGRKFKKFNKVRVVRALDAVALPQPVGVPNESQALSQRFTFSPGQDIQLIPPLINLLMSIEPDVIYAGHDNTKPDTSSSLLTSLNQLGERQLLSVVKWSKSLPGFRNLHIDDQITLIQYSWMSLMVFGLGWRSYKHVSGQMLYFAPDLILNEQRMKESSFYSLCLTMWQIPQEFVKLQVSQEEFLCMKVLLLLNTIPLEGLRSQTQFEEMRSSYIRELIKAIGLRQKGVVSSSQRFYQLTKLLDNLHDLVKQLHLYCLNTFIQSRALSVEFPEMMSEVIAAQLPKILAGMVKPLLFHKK
Particulars: 100 nM progesterone; 2 ng/ml LF+500 ng/ml PA; RU486 up to 1 μM; pLTR luc.

For `COc1cccc(-c2cc(=O)c3ccccc3o2)c1N` [PD98059], in assay [1], the “GR/GRE-specific effect of MAPK pathway inhibitor on Dex-induced GR transactivation” value was “does not affect GR transactivation; also recorded: no GRE specific effect; also recorded: did not alter GR repression; also recorded: does not have any GR specific effect” and the “effect on GRE-luciferase activity” value is listed as “decreased luciferase activity”. The “effect on constitutive luciferase (pGL3 control)” value in assay [2] was “decreased luciferase activity; also recorded: non-specific suppressive effect on luciferase”. Further, the “effect of MAPK inhibitor on dexamethasone-induced TAT activity” value (shortened to “effect of MAPK inhibitor”) in assay [3] is on record as “repress dexamethasone-induced TAT activity”.
For the molecule `COc1ccc(C2CNC(=O)C2)cc1OC1CCCC1` (centres unmarked) [rolipram], in assay [4], the “effect of rolipram on LeTx toxicity” value was “does not prevent LeTx toxicity”. Moreover, the “effect on LeTx repression of dexamethasone-induced TAT activity” value in assay [3] is “does not prevent LeTx repression”.
As to `C[C@@H]1C[C@H]2[C@@H]3CCC4=CC(=O)C=C[C@]4(C)[C@@]3(F)[C@@H](O)C[C@]2(C)[C@@]1(O)C(=O)CO` [Dex, dexamethasone], in assay [3], the “Dex concentration as low as which TAT is induced” value is reported as 10 nM and the “induction of TAT activity” value is “approximately 10 fold”.
With `C[S+]([O-])c1ccc(-c2nc(-c3ccncc3)c(-c3ccc(F)cc3)[nH]2)cc1` (centres unmarked) [SB203580], in assay [1], the “GR/GRE-specific effect of MAPK pathway inhibitor on Dex-induced GR transactivation” value is recorded as “has no effect on GR-mediated transactivation”. The “effect of MAPK inhibitor” value in assay [3] was “repress dexamethasone-induced TAT activity”.
Consider `Nc1nccc(-c2c(-c3ccc(F)cc3)ncn2C2CCNCC2)n1` [SB220025], for which the “effect of MAPK inhibitor” value in assay [3] is “repress dexamethasone-induced TAT activity”.
As for `CC#C[C@]1(O)CC[C@H]2[C@@H]3CCC4=CC(=O)CCC4=C3[C@@H](c3ccc(N(C)C)cc3)C[C@@]21C` [RU 486, mifepristone], in assay [1], the “mode of GR repression / antagonism” value is “competitive antagonist” and the “repression of Dex-induced GR transactivation in the presence of LeTx” value is “fully repressed; also recorded: fully repress”. In assay [4], the “effect of pretreatment on LeTx toxicity” value is “does not prevent LeTx toxicity”. Further, the “effect of pretreatment on LeTx toxicity” value in assay [5] is “does not prevent LeTx toxicity”. In addition, in assay [6], the “competition with [3H] dexamethasone for binding to GR” value was “can compete”. The “repression of progesterone-induced PR-B transactivation in the presence of LeTx” value in assay [7] is recorded as “fully repress”.

(Values after patent US20060035813A1, “Methods and formulations comprising agonists and antagonists of nuclear hormone receptors” (priority 2002, published 2006).)
